Reference: PMC10894229, “Novel antimicrobial peptides against Cutibacterium acnes designed by deep learning” (Scientific Reports, 2024)
Read-outs that look alike come from different tables or passages of the source.

Tested on: C. acnes (BNCC 336649)
Details: for Concentration with antimicrobial activity >50%: C. acnes; for Concentration with antimicrobial activity >50% / Category of in vitro test antimicrobial activity against C. acnes: supplementary Table 5; for Antimicrobial activity > 50% against C. acnes: broth microdilution, 48 h, OD 630 nm
Protocol: The strain of C. acnes (BNCC 336649) was cultured in Wilkins-Chalgren Anaerobe Broth (QingDao RiShui Bio-technologies, 11071) at 37 °C under an anaerobic atmosphere performed by a Labiophy HL-B automatic hypoxic workstation (Dalian, Liaoning Province, Labiophy HL-B), inflated with a gas mix of 15% carbon dioxide, 83% nitrogen, and 2% hydrogen.
Logarithmic phase growth bacteria were used for antimicrobial testing.
To determine the MIC values, the broth microdilution method was used. […] Briefly, peptide samples were prepared as a stock solution in water and then diluted. 180 μL of the bacterial suspension (10^7 CFU/mL) and 20 μL of the tested sample were added together into 96-Well Deep Well Plates and incubated 24 h for E. coli and S. aureus or 48 h for C. acnes and C. albicans. For each test, two columns of the plate were kept for sterility control (broth only) and growth control (broth with bacterial inoculums, no antibiotics). The optical density of cultures was measured at 630 nm by a microplate reader (SYNERGY-H1, BioTek, USA) to estimate bacterial growth. All experiments were conducted in triplicate. We used ciprofloxacin (CPFX) as the antibiotic control for antimicrobial testing.

Row | Sequence | Concentration with antimicrobial activity >50% | Antimicrobial activity > 50% against C. acnes (at 25 µg/mL) | Antimicrobial activity > 50% against C. acnes (at 50 µg/mL) | Antimicrobial activity > 50% against C. acnes (at 100 µg/mL) | Category of in vitro test antimicrobial activity against C. acnes
1 | KRLIKWLNVAKKVV [AMP-3] | 100 µg/mL | No (A peptide was deemed to have antimicrobial activity if C. acnes growth was inhibited by more than 50% at a given concentration) | No (A peptide was deemed to have antimicrobial activity if C. acnes growth was inhibited by more than 50% at a given concentration) | Inhibit (A peptide was deemed to have antimicrobial activity if C. acnes growth was inhibited by more than 50% at a given concentration) | Weak AMP
2 | KAIAALAKKIIKVAK [AMP-24] | no | No (A peptide was deemed to have antimicrobial activity if C. acnes growth was inhibited by more than 50% at a given concentration) | No (A peptide was deemed to have antimicrobial activity if C. acnes growth was inhibited by more than 50% at a given concentration) | No (A peptide was deemed to have antimicrobial activity if C. acnes growth was inhibited by more than 50% at a given concentration) | No AMP
3 | NRWLKAAKVAAKVI [AMP-36] | no | No (A peptide was deemed to have antimicrobial activity if C. acnes growth was inhibited by more than 50% at a given concentration) | No (A peptide was deemed to have antimicrobial activity if C. acnes growth was inhibited by more than 50% at a given concentration) | No (A peptide was deemed to have antimicrobial activity if C. acnes growth was inhibited by more than 50% at a given concentration) | No AMP
4 | GKLKKIWKNFGKIIK [AMP-20] | 25 µg/mL | Inhibit (A peptide was deemed to have antimicrobial activity if C. acnes growth was inhibited by more than 50% at a given concentration) | Inhibit (A peptide was deemed to have antimicrobial activity if C. acnes growth was inhibited by more than 50% at a given concentration) | Inhibit (A peptide was deemed to have antimicrobial activity if C. acnes growth was inhibited by more than 50% at a given concentration) | Medium AMP
5 | LQLLKQFRKVLKKLS [AMP-13] | 25 µg/mL | Inhibit (A peptide was deemed to have antimicrobial activity if C. acnes growth was inhibited by more than 50% at a given concentration) | Inhibit (A peptide was deemed to have antimicrobial activity if C. acnes growth was inhibited by more than 50% at a given concentration) | Inhibit (A peptide was deemed to have antimicrobial activity if C. acnes growth was inhibited by more than 50% at a given concentration) | Medium AMP
6 | CKAVLRWVSRLKKL [AMP-39] | 25 µg/mL | Inhibit (A peptide was deemed to have antimicrobial activity if C. acnes growth was inhibited by more than 50% at a given concentration) | Inhibit (A peptide was deemed to have antimicrobial activity if C. acnes growth was inhibited by more than 50% at a given concentration) | Inhibit (A peptide was deemed to have antimicrobial activity if C. acnes growth was inhibited by more than 50% at a given concentration) | Medium AMP
7 | KKLAGLAKKWWKPLR [AMP-22] | – | No (A peptide was deemed to have antimicrobial activity if C. acnes growth was inhibited by more than 50% at a given concentration) | Inhibit (A peptide was deemed to have antimicrobial activity if C. acnes growth was inhibited by more than 50% at a given concentration) | Inhibit (A peptide was deemed to have antimicrobial activity if C. acnes growth was inhibited by more than 50% at a given concentration) | Medium AMP
8 | VKRILKWAFK [AMP-1] | – | No (A peptide was deemed to have antimicrobial activity if C. acnes growth was inhibited by more than 50% at a given concentration) | Inhibit (A peptide was deemed to have antimicrobial activity if C. acnes growth was inhibited by more than 50% at a given concentration) | Inhibit (A peptide was deemed to have antimicrobial activity if C. acnes growth was inhibited by more than 50% at a given concentration) | Medium AMP
9 | GLVSRLRRLVTPLL [AMP-4] | – | No (A peptide was deemed to have antimicrobial activity if C. acnes growth was inhibited by more than 50% at a given concentration) | Inhibit (A peptide was deemed to have antimicrobial activity if C. acnes growth was inhibited by more than 50% at a given concentration) | Inhibit (A peptide was deemed to have antimicrobial activity if C. acnes growth was inhibited by more than 50% at a given concentration) | Medium AMP
10 | VKRLKKAFKKLARLV [AMP-32] | – | No (A peptide was deemed to have antimicrobial activity if C. acnes growth was inhibited by more than 50% at a given concentration) | Inhibit (A peptide was deemed to have antimicrobial activity if C. acnes growth was inhibited by more than 50% at a given concentration) | Inhibit (A peptide was deemed to have antimicrobial activity if C. acnes growth was inhibited by more than 50% at a given concentration) | Medium AMP
11 | SKILGKLTKAAKIAW [AMP-28] | no | No (A peptide was deemed to have antimicrobial activity if C. acnes growth was inhibited by more than 50% at a given concentration) | No (A peptide was deemed to have antimicrobial activity if C. acnes growth was inhibited by more than 50% at a given concentration) | No (A peptide was deemed to have antimicrobial activity if C. acnes growth was inhibited by more than 50% at a given concentration) | No AMP
12 | AIHKLAHHIAKLAKK [AMP-35] | no | No (A peptide was deemed to have antimicrobial activity if C. acnes growth was inhibited by more than 50% at a given concentration) | No (A peptide was deemed to have antimicrobial activity if C. acnes growth was inhibited by more than 50% at a given concentration) | No (A peptide was deemed to have antimicrobial activity if C. acnes growth was inhibited by more than 50% at a given concentration) | No AMP
13 | FLKKLRTAVLKLTKG [AMP-17] | 25 µg/mL | Inhibit (A peptide was deemed to have antimicrobial activity if C. acnes growth was inhibited by more than 50% at a given concentration) | Inhibit (A peptide was deemed to have antimicrobial activity if C. acnes growth was inhibited by more than 50% at a given concentration) | Inhibit (A peptide was deemed to have antimicrobial activity if C. acnes growth was inhibited by more than 50% at a given concentration) | Medium AMP
14 | KKLAGLAWKALRKAK [AMP-6] | 100 µg/mL | No (A peptide was deemed to have antimicrobial activity if C. acnes growth was inhibited by more than 50% at a given concentration) | No (A peptide was deemed to have antimicrobial activity if C. acnes growth was inhibited by more than 50% at a given concentration) | Inhibit (A peptide was deemed to have antimicrobial activity if C. acnes growth was inhibited by more than 50% at a given concentration) | Weak AMP
15 | KALAATVKKVAKLIK [AMP-34] | no | No (A peptide was deemed to have antimicrobial activity if C. acnes growth was inhibited by more than 50% at a given concentration) | No (A peptide was deemed to have antimicrobial activity if C. acnes growth was inhibited by more than 50% at a given concentration) | No (A peptide was deemed to have antimicrobial activity if C. acnes growth was inhibited by more than 50% at a given concentration) | No AMP
16 | ALIKKLERTLRKAI [AMP-37] | no | No (A peptide was deemed to have antimicrobial activity if C. acnes growth was inhibited by more than 50% at a given concentration) | No (A peptide was deemed to have antimicrobial activity if C. acnes growth was inhibited by more than 50% at a given concentration) | No (A peptide was deemed to have antimicrobial activity if C. acnes growth was inhibited by more than 50% at a given concentration) | No AMP
